# From patent publication US7109243B2 (IRM LLC, priority 2003, dated 2006)
# Columns and labels:
# Cathepsin K = target: T1, Cathepsin K (Homo sapiens, UniProt P43235); assay: Cathepsin K inhibition assay (fluorogenic peptide substrate); selectivity ratio vs cathepsin S; assay type: biochemical; conditions: ratio of cathepsin K inhibition constant to cathepsin S inhibition constant; Table II
# T1 sequence (P43235 115-329): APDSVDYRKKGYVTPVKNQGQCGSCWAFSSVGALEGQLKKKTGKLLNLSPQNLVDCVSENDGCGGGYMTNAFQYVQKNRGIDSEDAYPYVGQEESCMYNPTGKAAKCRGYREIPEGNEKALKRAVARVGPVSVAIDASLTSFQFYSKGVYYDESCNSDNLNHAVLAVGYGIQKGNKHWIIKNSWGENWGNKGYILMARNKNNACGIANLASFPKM
# How it was run: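 Inhibition constants for competitive inhibitors come from apparent values fitted to enzyme progress curves. Substrate, acetyl-Lys-His-Pro-Lys-aminocarbamoylcoumarin (40 μM final), starts the reaction; fluorescence rise read at 380 nm excitation, 450 nm emission. Selectivity ratio: other cathepsin constant over cathepsin S constant.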
# Cathepsin S = Cathepsin S (Homo sapiens, UniProt P25774); assay: Cathepsin S inhibition assay (fluorogenic peptide substrate); assay type: biochemical; conditions: Table II, compounds of Formula I; read-out: Ki Cat. S
# Chain of Cathepsin S (P25774 115-331, species assumed): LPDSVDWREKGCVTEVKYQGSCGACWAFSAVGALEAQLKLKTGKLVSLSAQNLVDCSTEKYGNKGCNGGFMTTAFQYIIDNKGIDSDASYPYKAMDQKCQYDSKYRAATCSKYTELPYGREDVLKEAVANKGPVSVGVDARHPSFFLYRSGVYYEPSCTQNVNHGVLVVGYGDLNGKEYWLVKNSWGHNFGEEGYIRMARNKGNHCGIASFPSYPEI
# How it was run: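 Ki values come from nonlinear fitting of inhibited hydrolysis rates, taking free and total inhibitor concentrations as equal. Rates measured as rising fluorescence at 380/450 nm after reaction start with 50 μM final acetyl-HPVK-aminocarbamoylcoumarin.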
smiles,measurement,setting,value
"COc1ccc(NCCNC(=O)[C@H](Cc2ccc(Oc3cc(Cl)cc(Cl)c3)cc2)NC(=O)c2cccc(C)c2)cc1 [Compound 18, (S)-N-{2-[4-(3,5-Dichloro-phenoxy)-phenyl]-1-[2-(4-methoxy-phenylamino)-ethylcarbamoyl]-ethyl}-3-methyl-benzamide]",Selectivity for Cat. S over Cat. K,Cathepsin K,"+ (+, >10)"
same,Ki,Cathepsin S,< 10000 nM
"COc1ccc(NCCNC(=O)[C@H](CC2CCCCC2)NC(=O)c2ccc(C)c(Br)c2)cc1 [Compound 112, (S)-3-Bromo-N-{2-cyclohexyl-1-[2-(4-methoxy-phenylamino)-ethylcarbamoyl]-ethyl}-4-methyl-benzamide]",Selectivity for Cat. S over Cat. K,Cathepsin K,"++ (++, >100)"
same,Ki,Cathepsin S,< 100 nM
"COc1ccc(NCCNC(=O)[C@H](Cc2ccccc2)NC(=O)Nc2cccc(OC)c2)cc1 [Compound 104, (S)-N-[2-(4-Methoxy-phenylamino)-ethyl]-2-[3-(3-methoxy-phenyl)-ureido]-3-phenyl-propionamide]",Selectivity for Cat. S over Cat. K,Cathepsin K,"+ (+, >10)"
same,Ki,Cathepsin S,< 10000 nM
"COc1ccc(NCCNC(=O)[C@H](CC2CCCCC2)NC(=O)c2ccc(-c3cc(Cl)cc(Cl)c3)cc2)cc1 [Compound 171, (S)-3′, 5′-Dichloro-biphenyl-4-carboxylic acid {2-cyclohexyl-1-[2-(4-methoxy-phenylamino)-ethylcarbamoyl]-ethyl}-amide]",Selectivity for Cat. S over Cat. K,Cathepsin K,"+++ (+++, >1000)"
same,Ki,Cathepsin S,< 100 nM
"O=C(N[C@@H](CC1CCCCC1)C(=O)NCCNc1ccc(OC(F)(F)F)cc1)c1ccc(-c2cccc(F)c2)cc1 [Compound 198, (S)-3′-Fluoro-biphenyl-4-carboxylic acid {2-cyclohexyl-1-[2-(4-trifluoromethoxy-phenylamino)-ethylcarbamoyl]-ethyl}-amide]",Selectivity for Cat. S over Cat. K,Cathepsin K,"+ (+, >10)"
same,Ki,Cathepsin S,< 1000 nM
COc1ccc(NCCNC(=O)[C@H](CCC2CCCCC2)NC(=O)[C@@H](C)c2ccccc2)cc1 [Compound 128],Selectivity for Cat. S over Cat. K,Cathepsin K,"+++ (+++, >1000)"
same,Ki,Cathepsin S,< 100 nM
"COc1ccc(NCCNC(=O)C(NC(=O)c2cccc(C)c2)c2cccc(Cl)c2Cl)cc1 (stereo not drawn) [Compound 223, N-{(2,3-Dichloro-phenyl)-[2-(4-methoxy-phenylamino)-ethylcarbamoyl]-methyl}-3-methyl-benzamide]",Selectivity for Cat. S over Cat. K,Cathepsin K,"++ (++, >100)"
same,Ki,Cathepsin S,< 1000 nM
"COc1ccc(NCCNC(=O)[C@H](CCC2CCCCC2)NC(=O)c2ccc(C#N)cc2)cc1 [Compound 140, (S)-4-Cyano-N-{3-cyclohexyl-1-[2-(4-methoxy-phenylamino)-ethylcarbamoyl]-propyl}-benzamide]",Selectivity for Cat. S over Cat. K,Cathepsin K,"+++ (+++, >1000)"
same,Ki,Cathepsin S,< 100 nM
"N#Cc1cccc(C(=O)N[C@@H](CC2CCCCC2)C(=O)NCCNc2ccc(F)cc2)c1 [Compound 324, 3-Cyano-N-(S)-{2-cyclohexyl-1-[2-(4-fluoro-phenylamino)-ethylcarbamoyl]-ethyl}-benzamide]",Selectivity for Cat. S over Cat. K,Cathepsin K,"++ (++, >100)"
same,Ki,Cathepsin S,< 100 nM
"COc1ccc(NCCNC(=O)[C@H](CC2CCCCC2)NC(=O)c2cc(C)c(OC)c(C)c2)cc1 [Compound 111, (S)-N-{2-Cyclohexyl-1-[2-(4-methoxy-phenylamino)-ethylcarbamoyl]-ethyl}-4-methoxy-3,5-dimethyl-benzamide]",Selectivity for Cat. S over Cat. K,Cathepsin K,"++ (++, >100)"
same,Ki,Cathepsin S,< 100 nM
"COc1ccc(NCCNC(=O)[C@H](CC2CCCCC2)NC(=O)c2cc(F)ccc2C)cc1 [Compound 157, (S)-N-{2-Cyclohexyl-1-[2-(4-methoxy-phenylamino)-ethylcarbamoyl]-ethyl}-5-fluoro-2-methyl-benzamide]",Selectivity for Cat. S over Cat. K,Cathepsin K,"+++ (+++, >1000)"
same,Ki,Cathepsin S,< 100 nM
"COc1ccc(NCCNC(=O)[C@H](CC2CCCCC2)NC(=O)[C@H](O)c2ccccc2)cc1 [Compound 160, 3-Cyclohexyl-2-(S)-(2-(R)-hydroxy-2-phenyl-acetylamino)-N-[2-(4-methoxy-phenylamino)-ethyl]-propionamide]",Selectivity for Cat. S over Cat. K,Cathepsin K,"++ (++, >100)"
same,Ki,Cathepsin S,< 10000 nM
"COc1ccc(NCCNC(=O)[C@H](CC2CCCCC2)NC(=O)c2cc(C)ccc2Cl)cc1 [Compound 148, (S)-2-Chloro-N-{2-cyclohexyl-1-[2-(4-methoxy-phenylamino)-ethylcarbamoyl]-ethyl}-5-methyl-benzamide]",Selectivity for Cat. S over Cat. K,Cathepsin K,"+++ (+++, >1000)"
same,Ki,Cathepsin S,< 100 nM
"O=C(N[C@@H](CC1CCCCC1)C(=O)NCCNc1ccc(OC(F)(F)F)cc1)c1ccc(-c2cccc(C(F)(F)F)c2)s1 [Compound 50, 5-(3-Trifluoromethyl-phenyl)-thiophene-2-carboxylic acid (S)-{2-cyclohexyl-1-[2-(4-trifluoromethoxy-phenylamino)-ethylcarbamoyl]-ethyl}-amide]",Selectivity for Cat. S over Cat. K,Cathepsin K,"+++ (+++, >1000)"
same,Ki,Cathepsin S,< 100 nM
"COc1ccc(NCCNC(=O)[C@H](Cc2cccc(Cl)c2)NC(=O)c2ccc(-c3cccc(C(F)(F)F)c3)o2)cc1 [Compound 3, N-((S)-1-(2-(4-methoxyphenylamino)ethylcarbamoyl)-2-(3-chlorophenyl)ethyl)-5-(3-(trifluoromethyl)phenyl)furan-2-carboxamide]",Selectivity for Cat. S over Cat. K,Cathepsin K,"+++ (+++, >1000)"
same,Ki,Cathepsin S,< 100 nM
"COc1ccc(NCCNC(=O)[C@H](Cc2ccc(-c3cccc(OC)c3OC)cc2)NC(=O)c2cccc(C)c2)cc1 [Compound 279, (S)-N-{2-(2′,3′-Dimethoxy-biphenyl-4-yl)-1-[2-(4-methoxy-phenylamino)-ethylcarbamoyl]-ethyl}-3-methyl-benzamide]",Selectivity for Cat. S over Cat. K,Cathepsin K,"++ (++, >100)"
same,Ki,Cathepsin S,< 1000 nM
"O=C(N[C@@H](CC1CCCCC1)C(=O)NCCNc1ccc(OC(F)(F)F)cc1)c1cccc(CN2CCOCC2)c1 [Compound 200, (S)-N-{2-Cyclohexyl-1-[2-(4-trifluoromethoxy-phenylamino)-ethylcarbamoyl]-ethyl}-3-morpholin-4-ylmethyl-benzamide]",Selectivity for Cat. S over Cat. K,Cathepsin K,"+ (+, >10)"
same,Ki,Cathepsin S,< 100 nM
"CS(=O)(=O)Nc1cccc(C(=O)N[C@@H](CC2CCCCC2)C(=O)NCCNc2ccc(F)cc2)c1 [Compound 84, N-(S)-{2-cyclohexyl-1-[2-(4-fluoro-phenylamino)-ethylcarbamoyl]-ethyl}-3-methanesulfonylamino-benzamide]",Selectivity for Cat. S over Cat. K,Cathepsin K,"++ (++, >100)"
same,Ki,Cathepsin S,< 100 nM
"O=C(Cc1cccc(Cl)c1)N[C@@H](CC1CCCCC1)C(=O)NCCNc1ccc(F)cc1 [Compound 302, 2-(S)-[2-(3-Chloro-phenyl)-acetylamino]-3-cyclohexyl-N-[2-(4-fluoro-phenylamino)-ethyl]-propionamide]",Selectivity for Cat. S over Cat. K,Cathepsin K,"++ (++, >100)"
same,Ki,Cathepsin S,< 100 nM
"COc1ccc(NCCNC(=O)C(NC(=O)c2cccc(C)c2)C(C)c2ccc([N+](=O)[O-])cc2)cc1 (stereo not drawn) [Compound 266, N-[1-[2-(4-Methoxy-phenylamino)-ethylcarbamoyl]-2-(4-nitro-phenyl)-propyl]-3-methyl-benzamide]",Selectivity for Cat. S over Cat. K,Cathepsin K,"+ (+, >10)"
same,Ki,Cathepsin S,< 1000 nM
"COc1ccc(NCCNC(=O)[C@H](Cc2ccc(-c3ccc(OC)c(OC)c3)cc2)NC(=O)c2cccc(C)c2)cc1 [Compound 281, (S)-N-{2-(3′,4′-Dimethoxy-biphenyl-4-yl)-1-[2-(4-methoxy-phenylamino)-ethylcarbamoyl]-ethyl}-3-methyl-benzamide]",Selectivity for Cat. S over Cat. K,Cathepsin K,"++ (++, >100)"
same,Ki,Cathepsin S,< 1000 nM
"COc1ccc(NCCNC(=O)[C@H](CCC2CCCCC2)NC(=O)c2ccc(-c3ccccc3)cc2)cc1 [Compound 130, (S)-Biphenyl-4-carboxylic acid {3-cyclohexyl-1-[2-(4-methoxy-phenylamino)-ethylcarbamoyl]-propyl}-amide]",Selectivity for Cat. S over Cat. K,Cathepsin K,"+ (+, >10)"
same,Ki,Cathepsin S,< 10000 nM
"COc1ccc(NCCNC(=O)[C@H](Cc2ccc(-c3ccncc3)cc2)NC(=O)c2cccc(C)c2)cc1 [Compound 277, (S)-N-[1-[2-(4-Methoxy-phenylamino)-ethylcarbamoyl]-2-(4-pyridin-4-yl-phenyl)-ethyl]-3-methyl-benzamide]",Selectivity for Cat. S over Cat. K,Cathepsin K,"++ (++, >100)"
same,Ki,Cathepsin S,< 100 nM
"COc1ccc(NCCNC(=O)C(NC(=O)c2cccc(C)c2)c2ccc(Cl)cc2)cc1 (racemic) [Compound 8, (±)-N-((2-(4-methoxyphenylamino)ethylcarbamoyl)(4-chlorophenyl)methyl)-3-methylbenzamide]",Selectivity for Cat. S over Cat. K,Cathepsin K,"+++ (+++, >1000)"
same,Ki,Cathepsin S,< 100 nM
"O=C(NCCNc1ccc(F)cc1)[C@H](CC1CCCCC1)NC(=O)C1(c2ccccc2)CC1 [Compound 319, 1-Phenyl-cyclopropanecarboxylic acid (S)-{2-cyclohexyl-1-[2-(4-fluoro-phenylamino)-ethylcarbamoyl]-ethyl}-amide]",Selectivity for Cat. S over Cat. K,Cathepsin K,"++ (++, >100)"
same,Ki,Cathepsin S,< 100 nM
"COc1cc(OC)nc(-c2ccc(C(=O)N[C@@H](CC3CCCCC3)C(=O)NCCNc3ccc(OC(F)(F)F)cc3)cc2)n1 [Compound 80, N-(S)-{2-cyclohexyl-1-[2-(4-trifluoromethoxy-phenylamino)-ethylcarbamoyl]-ethyl}-4-(4,6-dimethoxy-pyrimidin-2-yl)-benzamide]",Selectivity for Cat. S over Cat. K,Cathepsin K,"+++ (+++, >1000)"
same,Ki,Cathepsin S,< 1000 nM
"COc1ccc(NCCNC(=O)[C@H](CC2CCCCC2)NC(=O)c2ccc(-c3ccc4c(c3)OCO4)cc2)cc1 [Compound 176, (S)-4-Benzo[1,3]dioxol-5-yl-N-{2-cyclohexyl-1-[2-(4phenylamino)-ethylcarbamoyl]-ethyl}-benzamide]",Selectivity for Cat. S over Cat. K,Cathepsin K,"+++ (+++, >1000)"
same,Ki,Cathepsin S,< 100 nM
